For the assay, the system named is Zebrafish larvae. Put plainly: Zebrafish larvae survival assay under hydrogen peroxide oxidative stress. The assay is classed as in vivo, zebrafish (AB strain). Particulars: for larvae survived: compound 12 h before H2O2, survival after 24 h. The protocol: Zebrafish larvae provide a suitable vertebrate model for studying the oxidative stress […]. […] Survival assays were performed according to a protocol described previously^36 with some modifications. Briefly, wild-type zebrafish larvae
(AB strain, ZFIN ID: ZDB-GENO-960809-7) were used. At 3.5 days post fertilization (dpf), 24 larvae per condition were placed in a 60-mm petri dish with 5 ml of egg water (0.6 g/L Ocean sea salt, Tecniplast). Compounds of interest were directly added into the egg water for 12 h. Subsequently, compounds were removed at 4 days post fertilization (dpf4) and larvae were transferred to a 96-well plate in a volume of 200 μl fresh egg water containing 2.5 mM hydrogen peroxide (H2O2; Sigma Merck). Survival was monitored after 24 h of treatment.

In turn, `NCC(=O)O` [L-glycine] registered a larvae survived (vehicle+2.5 mM H2O2+500 μM L-glycine) of roughly 10%. Take `C[S+]([O-])CCCCN=C=S` (stereo not drawn) [Sfn, 4-methylsulfinylbutyl isothiocyanate]: the “Predicted (LS) mean diff” value (survival, comparison 0 μM vs. treated group, 2.5 mM H2O2, 2 way ANOVA, Tukey's) is −7.077. For the setting “vehicle+2.5 mM H2O2+1 μM Sfn”, the larvae survived is listed as roughly 10%.
